The source of these data is patent publication US20220411367A1, “ARYLMETHYLENE HETEROCYCLIC COMPOUNDS AS KV1.3 POTASSIUM SHAKER CHANNEL BLOCKERS” (D. E. Shaw Research, LLC, priority 2019, published 2022).

One experiment concerns the target T1, Kv1.3 potassium channel (Homo sapiens, UniProt P22001).
T1 construct: expressed in transfected cells
Briefly: Kv1.3 potassium channel blocker activity, automated whole-cell patch clamp (Patchliner). In kind it is cell-based. Particulars: CHO-K1 cells stably expressing Kv1.3; whole cell current inhibition; read-out: Kvl.3 IC50. On the procedure:
This assay is used to evaluate the disclosed compounds' activities as Kv1.3 potassium channel blockers.
CHO-K1 cells stably expressing Kv1.3 were grown in DMEM containing 10% heat-inactivated FBS, 1 mM Sodium Pyruvate, 2 mM L-Glutamine and G418 (500 μg/ml).
(§1) All compounds were dissolved in DMSO at 30 mM.
The currents were evoked by applying 100 ms depolarizing pulses from −90 mV (holding potential) to +40 mV were applied with 0.1 Hz frequency. […] 10 second breaks were used between pulse trains (see Table A below).
Data were sampled at 10 kHz without filtering. Passive leak currents were subtracted online using a P/4 procedure (HEKA Elektronik Dr. Schulze GmbH). […] Total compound incubation time before the next pulse train was not longer than 10 seconds. Peak current inhibition was observed during compound equilibration.
For orientation: The patch-clamp technique gives a direct electrical read-out from membranes.

The next experiment deals with T2, hERG channel (Homo sapiens, UniProt Q12809).
T2 construct: expressed in transfected cells
T2 sequence (Q12809 whole entry): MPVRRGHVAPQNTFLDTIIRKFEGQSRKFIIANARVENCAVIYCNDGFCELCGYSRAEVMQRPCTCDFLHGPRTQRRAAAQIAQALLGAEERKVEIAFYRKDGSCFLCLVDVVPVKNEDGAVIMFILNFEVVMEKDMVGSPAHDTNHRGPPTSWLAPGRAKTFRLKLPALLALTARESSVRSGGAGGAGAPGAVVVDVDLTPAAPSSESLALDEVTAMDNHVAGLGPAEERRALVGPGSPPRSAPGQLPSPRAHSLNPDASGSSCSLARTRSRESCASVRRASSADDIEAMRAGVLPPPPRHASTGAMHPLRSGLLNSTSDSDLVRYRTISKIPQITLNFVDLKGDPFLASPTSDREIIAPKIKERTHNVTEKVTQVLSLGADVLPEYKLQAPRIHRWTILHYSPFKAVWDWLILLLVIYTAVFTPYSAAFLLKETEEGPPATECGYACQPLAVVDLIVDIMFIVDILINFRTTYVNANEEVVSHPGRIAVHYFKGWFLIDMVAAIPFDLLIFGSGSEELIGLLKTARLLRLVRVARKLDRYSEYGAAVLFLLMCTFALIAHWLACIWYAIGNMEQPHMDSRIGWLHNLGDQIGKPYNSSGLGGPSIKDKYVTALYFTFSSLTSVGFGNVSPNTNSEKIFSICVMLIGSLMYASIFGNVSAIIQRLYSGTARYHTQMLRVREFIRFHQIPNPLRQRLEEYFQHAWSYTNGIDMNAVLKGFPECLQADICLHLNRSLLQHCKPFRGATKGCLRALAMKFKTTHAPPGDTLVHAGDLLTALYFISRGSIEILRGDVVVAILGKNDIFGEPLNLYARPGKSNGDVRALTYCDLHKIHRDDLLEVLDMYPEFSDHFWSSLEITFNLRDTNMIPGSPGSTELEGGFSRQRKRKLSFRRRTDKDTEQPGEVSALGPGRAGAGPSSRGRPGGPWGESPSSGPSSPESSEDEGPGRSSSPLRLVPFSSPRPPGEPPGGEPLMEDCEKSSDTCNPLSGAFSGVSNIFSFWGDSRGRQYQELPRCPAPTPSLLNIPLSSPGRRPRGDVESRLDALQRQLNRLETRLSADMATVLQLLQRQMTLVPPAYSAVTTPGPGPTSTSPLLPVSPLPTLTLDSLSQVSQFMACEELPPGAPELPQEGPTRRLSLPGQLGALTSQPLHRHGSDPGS
Briefly: hERG electrophysiology, automated whole-cell patch clamp (Patchliner). Format: cell-based. As to conditions: CHO-K1 cells stably expressing hERG; whole cell current inhibition; read-out: hERG IC50. On the procedure:
as §1
The pulse frequency was 0.3 Hz.
Data were sampled at 10 kHz without filtering.
For orientation: hERG is a cardiac potassium channel; its block is linked to QT prolongation.

T1 sequence (P22001 whole entry): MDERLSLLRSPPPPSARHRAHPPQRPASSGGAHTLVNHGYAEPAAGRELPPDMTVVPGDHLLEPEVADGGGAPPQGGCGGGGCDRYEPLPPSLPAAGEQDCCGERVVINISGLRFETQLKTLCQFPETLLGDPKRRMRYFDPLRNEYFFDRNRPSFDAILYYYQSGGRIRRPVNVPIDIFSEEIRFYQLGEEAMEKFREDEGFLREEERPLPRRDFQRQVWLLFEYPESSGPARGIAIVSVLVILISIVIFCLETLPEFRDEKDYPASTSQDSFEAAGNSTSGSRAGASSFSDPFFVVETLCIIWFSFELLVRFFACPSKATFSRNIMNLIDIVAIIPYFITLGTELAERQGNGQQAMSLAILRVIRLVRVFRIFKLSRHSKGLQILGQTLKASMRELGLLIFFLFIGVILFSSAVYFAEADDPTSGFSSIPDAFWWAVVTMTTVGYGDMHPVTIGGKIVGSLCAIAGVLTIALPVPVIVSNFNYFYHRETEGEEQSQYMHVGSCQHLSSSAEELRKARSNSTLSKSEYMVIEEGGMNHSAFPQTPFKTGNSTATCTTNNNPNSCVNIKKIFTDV

A word on the IC50: it is the concentration needed to halve the response being measured. On to `Oc1cc(Cl)c(Cl)cc1CN1CCC2(CC1)COC2` [Compound 51, 4,5-dichloro-2-[2-oxa-7-azaspiro [3.5]nonan-7-ylmethyl] phenol], for which the results for the IC50 on Kv1.3 potassium channel and on hERG channel were less than 10 µM and less than 30 µM, respectively.

With `C[C@@H]1C[C@@H](CO)CCN1Cc1cc(Cl)c(Cl)cc1O` (relative stereo) [Compound 24, 4,5-dichloro-2-(((2R,4S)-rel-4-(hydroxymethyl)-2-methylpiperidin-1-yl)methyl)phenol], the IC50 on Kv1.3 potassium channel was less than 10 µM.

Regarding `Oc1cc(Cl)c(Cl)cc1CN1CCC(C2COC2)CC1` [Compound 42, 4,5-dichloro-2-[[4-(oxetan-3-yl)piperidin-1-yl]methyl]phenol], the results for the IC50 at Kv1.3 potassium channel and on hERG channel were less than 10 µM and less than 30 µM, respectively.

In the case of `O=C(O)CC1CCN(Cc2cc(Cl)c(Cl)cc2O)CC1` [Compound 28, 2-(1-(4,5-dichloro-2-hydroxybenzyl)piperidin-4-yl)acetic acid], the IC50 on Kv1.3 potassium channel was less than 10 µM.

Regarding `O=C(N1CCOCC1)N1CCN(Cc2cc(Cl)c(Cl)cc2O)CC1` [Compound 58, (4-(4,5-dichloro-2-hydroxybenzyl)piperazin-1-yl)(morpholino) methanone], the results for the IC50 on Kv1.3 potassium channel and at hERG channel were less than 10 µM and less than 30 µM, respectively.

On to `O=C(NCC1(CO)CCN(Cc2cc(Cl)c(Cl)cc2O)CC1)C(F)(F)F` [Compound 13, N-([1-[(4,5-dichloro-2-hydroxyphenyl)methyl]-4-(hydroxymethyl)piperidin-4-yl]methyl)-2,2,2-trifluoroacetamide], for which the IC50 at Kv1.3 potassium channel was less than 1 µM.

For `OCC1CCN(Cc2cc(Cl)c(Cl)cc2O)CC1` [Compound 65, 4,5-dichloro-2-((4-(hydroxymethyl)piperidin-1-yl)methyl)phenol], the IC50 on Kv1.3 potassium channel is less than 10 µM; at hERG channel, less than 30 µM.

Regarding `Cc1cc(CN2CCC(CO)CC2)c(O)cc1Cl` [Compound 17, 5-chloro-2-[[4-(hydroxymethyl)piperidin-1-yl]methyl]-4-methylphenol], the IC50 at Kv1.3 potassium channel is less than 10 µM.

With `NC1(CO)CCN(Cc2cc(Cl)c(Cl)cc2O)CC1` [Compound 14, 2-[[4-amino-4-(hydroxymethyl)piperidin-1-yl]methyl]-4,5-dichlorophenol], the IC50 at Kv1.3 potassium channel was less than 1 µM; on hERG channel it was less than 30 µM.

For the molecule `Oc1cc(Cl)c(Cl)cc1CN1CCC(O)(O)CC1` [Compound 37, 1-(4,5-dichloro-2-hydroxybenzyl)piperidine-4,4-diol trifluoroacetic acid], the IC50 at Kv1.3 potassium channel was less than 10 µM.

Turning to `COC(=O)C1CC(CO)CCN1Cc1cc(Cl)c(Cl)cc1O` (stereo not drawn) [Compound 1, methyl 1-[(4,5-dichloro-2-hydroxyphenyl)methyl]-4-(hydroxymethyl)piperidine-2-carboxylate], the half-inhibitory concentration (IC50) on Kv1.3 potassium channel is less than 10 µM.

Consider `CC(=O)NCC1(O)CCN(Cc2cc(Cl)c(Cl)cc2O)CC1` [Compound 8, N-([1-[(4,5-dichloro-2-hydroxyphenyl)methyl]-4-hydroxypiperidin-4-yl]methyl)acetamide], for which, at Kv1.3 potassium channel, the IC50 was less than 10 µM.

In the case of `OCC1CCN(Cc2cc(Br)c(Br)cc2O)CC1` [Compound 60, 4,5-dibromo-2-((4-(hydroxymethyl)piperidin-1-yl)methyl)phenol], the IC50 at Kv1.3 potassium channel is less than 1 µM; at hERG channel, less than 30 µM.

For the molecule `NCC1(N)CCN(Cc2cc(Cl)c(Cl)cc2O)CC1` [Compound 3, 2-((4-amino-4-(aminomethyl)piperidin-1-yl)methyl)-4,5-dichlorophenol], the half-inhibitory concentration (IC50) on Kv1.3 potassium channel is less than 1 µM; on hERG channel it was less than 30 µM.

For the molecule `OCC1(O)CCN(Cc2cc(Cl)c(Cl)cc2O)CC1` [Compound 48, 1-[(4,5-dichloro-2-hydroxyphenyl)methyl]-4-(hydroxymethyl)piperidin-4-ol], the IC50 on Kv1.3 potassium channel is less than 10 µM; at hERG channel, less than 30 µM.

For `OCC1CN(Cc2cc(Cl)c(Cl)cc2O)CCN1` (stereo not drawn) [Compound 47, 4,5-dichloro-2-((3-(hydroxymethyl)piperazin-1-yl)methyl)phenol], on Kv1.3 potassium channel, the 50% inhibitory concentration (IC50) was less than 10 µM.

On to `OCCC1CCN(Cc2cc(Cl)c(Cl)cc2O)CC1` [Compound 39, 4,5-dichloro-2-((4-(2-hydroxyethyl)piperidin-1-yl)methyl)phenol], for which the IC50 at Kv1.3 potassium channel was less than 10 µM; on hERG channel it was less than 30 µM.

Turning to `CS(=O)(=O)C1CCN(Cc2cc(Cl)c(Cl)cc2O)CC1` [Compound 41, 4,5-dichloro-2-((4-(methylsulfonyl)piperidin-1-yl)methyl)phenol], on Kv1.3 potassium channel, the IC50 is less than 10 µM.

In the case of `NCC1(O)CCN(Cc2cc(Cl)c(Cl)cc2O)CC1` [Compound 9, 4-(aminomethyl)-1-[(4,5-dichloro-2-hydroxyphenyl)methyl]piperidin-4-ol trifluoroacetic acid], the IC50 was less than 1 µM at Kv1.3 potassium channel and less than 30 µM at hERG channel.

`OCC1CCCN(Cc2cc(Cl)c(Cl)cc2O)CC1` (stereo not drawn) [Compound 27, 4,5-dichloro-2-[[4-(hydroxymethyl)azepan-1-yl]methyl]phenol]: the figures for the IC50 at Kv1.3 potassium channel and on hERG channel were less than 1 µM and less than 30 µM, respectively.

Take `O=C1CCC2(CCN1)CCN(Cc1cc(Cl)c(Cl)cc1O)CC2` [Compound 59, 3-(4,5-dichloro-2-hydroxybenzyl)-3,9-diazaspiro[5.6]dodecan-10-one]: on Kv1.3 potassium channel, the IC50 was less than 10 µM.

For the molecule `C[C@H]1C[C@@H](CO)CCN1Cc1cc(Cl)c(Cl)cc1O` (relative stereo) [Compound 29, 4,5-dichloro-2-(((2S,4S)-rel-4-(hydroxymethyl)-2-methylpiperidin-1-yl)methyl)phenol], the IC50 was less than 1 µM on Kv1.3 potassium channel and less than 30 µM on hERG channel.

With `OCC1CCCCN1Cc1cc(Cl)c(Cl)cc1O` (stereo not drawn) [Compound 34, 4,5-dichloro-2-[[2-(hydroxymethyl)piperidin-1-yl]methyl]phenol], the IC50 on Kv1.3 potassium channel is less than 10 µM.

For `OC[C@@H]1CCN(Cc2cc(Cl)c(Cl)cc2O)[C@H](c2ccccc2)C1` (relative stereo) [Compound 10, 4,5-dichloro-2-(((2S,4R)-rel-4-(hydroxymethyl)-2-phenylpiperidin-1-yl)methyl)phenol], the IC50 at Kv1.3 potassium channel is less than 10 µM.

As to `O=C(N1CCCC1)C1(CO)CCN(Cc2cc(Cl)c(Cl)cc2O)CC1` [Compound 6, 4,5-dichloro-2-[[4-(hydroxymethyl)-4-[(pyrrolidin-1-yl)carbonyl]piperidin-1-yl]methyl]phenol], at Kv1.3 potassium channel, the IC50 is less than 10 µM.

Take `Oc1cc(Cl)c(Cl)cc1CN1CCC2(CC1)OCCO2` [Compound 35, 4,5-dichloro-2-[1,4-dioxa-8-azaspiro[4.5]decan-8-ylmethyl]phenol trifluoroacetic acid]: the IC50 at Kv1.3 potassium channel is less than 10 µM.

With `Oc1cc(Cl)c(Cl)cc1CN1CCn2cnnc2C1` [Compound 43, 4,5-dichloro-2-[5H,6H,7H,8H-[1,2,4]triazolo[4,3-a]pyrazin-7-ylmethyl]phenol], the IC50 at Kv1.3 potassium channel was less than 10 µM.

On to `Cc1cc(O)c(CN2CCC(CO)CC2)cc1C` [Compound 16, 2-[[4-(hydroxymethyl)piperidin-1-yl]methyl]-4,5-dimethylphenol], for which the IC50 at Kv1.3 potassium channel is less than 10 µM.

In the case of `O=C1CCOC12CCN(Cc1cc(Cl)c(Cl)cc1O)CC2` [Compound 33, 8-[(4,5-dichloro-2-hydroxyphenyl)methyl]-1-oxa-8-azaspiro[4.5]decan-4-one], the IC50 at Kv1.3 potassium channel was less than 10 µM.

As to `OCC1(F)CCN(Cc2cc(Cl)c(Cl)cc2O)CC1` [Compound 31, 4,5-dichloro-2-[[4-fluoro-4-(hydroxymethyl)piperidin-l-yl]methyl]phenol], the IC50 on Kv1.3 potassium channel was less than 10 µM.

Regarding `CC(C)CC(c1cc(Cl)c(Cl)cc1O)N1CCC(CO)CC1` (stereo not drawn) [Compound 23, 4,5-dichloro-2-[1-[4-(hydroxymethyl)piperidin-1-yl]-3-methylbutyl]phenol], the IC50 on Kv1.3 potassium channel was less than 10 µM.

For the molecule `OC[C@@H]1[C@H]2CN(Cc3cc(Cl)c(Cl)cc3O)C[C@@H]12` [Compound 36, 4,5-dichloro-2-(((1R,5S,6R)-6-(hydroxymethyl)-3-azabicyclo[3.1.0]hexan-3-yl)methyl)phenol], the IC50 at Kv1.3 potassium channel was less than 10 µM.

As for `NCC(c1cc(Cl)c(Cl)cc1O)N1CCC(CO)CC1` (stereo not drawn) [Compound 4, 2-[2-amino-1-[4-(hydroxymethyl)piperidin-1-yl]ethyl]-4,5-dichlorophenol], the IC50 on Kv1.3 potassium channel is less than 10 µM.

Take `C=CC(=O)NCC1(CO)CCN(Cc2cc(Cl)c(Cl)cc2O)CC1` [Compound 7, N-([1-[(4,5-dichloro-2-hydroxyphenyl)methyl]-4-(hydroxymethyl)piperidin-4-yl]methyl)prop-2-enamide]: the IC50 on Kv1.3 potassium channel was less than 1 µM.

Take `Oc1cc(Cl)c(Cl)cc1CN1CCC(n2cnnc2)CC1` [Compound 38, 4,5-dichloro-2-[[4-(4H-1,2,4-triazol-4-yl)piperidin-1-yl]methyl]phenol]: on Kv1.3 potassium channel, the IC50 is less than 10 µM.

For the molecule `OCC1CCN(C(CO)c2cc(Cl)c(Cl)cc2O)CC1` (stereo not drawn) [Compound 15, 4,5-dichloro-2-[2-hydroxy-1-[4-(hydroxymethyl)piperidin-1-yl]ethyl]phenol], the IC50 at Kv1.3 potassium channel was less than 10 µM.

Consider `OCC1CCN(Cc2cc(Cl)c(Cl)cc2O)C(CO)C1` (stereo not drawn) [Compound 2, (1-(4,5-dichloro-2-hydroxybenzyl)piperidine-2,4-diyl)dimethanol], for which the IC50 on Kv1.3 potassium channel is less than 10 µM.

`OC[C@@H]1CCN(Cc2cc(Cl)c(Cl)cc2O)[C@@H](c2ccccc2)C1` (relative stereo) [Compound 11, 4,5-dichloro-2-(((2R,4R)-rel-4-(hydroxymethyl)-2-phenylpiperidin-1-yl)methyl)phenol]: the IC50 at Kv1.3 potassium channel was less than 10 µM.

Consider `CC(c1cc(Cl)c(Cl)cc1O)N1CCC(CO)CC1` (stereo not drawn) [Compound 46, 4,5-dichloro-2-[1-[4-(hydroxymethyl)piperidin-1-yl]ethyl]phenol], for which the 50% inhibitory concentration (IC50) at Kv1.3 potassium channel is less than 10 µM.
